Measurements reported in patent publication US20040014729A1, “Use of estramustine phosphate in the treatment of bone metastasis” (priority 2003, published 2004).
“Also recorded” adds a separate entry of the source.

Legend:
mouse calvaria = test: Bone resorption assay, organ culture with 45Ca-prelabeled mouse calvaria (PTH-stimulated 45Ca release); assay type: cell-based; settings: for bone resorption in vitro (in words): compound present during culture
Experimental: This example used the organ culture technique with mouse calvaria.
The organ culture technique was used with ^45Ca-prelabeled mouse calvaria. The method has been described by Lerner (1987) and Ljunggren et al. (1991). Newborn mice were injected subcutaneously with ^45CaCl (1.5 μCi/animal). After four days their calvaria were dissected, split into quarters and preincubated in phenol red free CMRL 1066 medium supplemented with 0.1% bovine serum albumin and 50 μg/ml gentamicin for 24 hours at 37° C. in a humidified atmosphere of 5% CO2 in air in the presence of indomethacin (1 μmol/l) and 10 nmol/l bovine parathyroid hormone (PTH). After washing the bone pieces, the medium was changed and cultures incubated for three more days in the same medium but without indomethacin in the presence or absence of estramustine phosphate or clodronate. Resorption was measured by assaying the ^45Ca liberated into the medium using a standard technique for liquid scintillation counting. Total ^45Ca was determined after hydrolysing the calvaria in 6 mol/l HCI overnight. Bone resorption was studied in various concentrations of estramustine phosphate and the effect of estramusine phosphate present only during the preincubation stage was checked in order to study its cytotoxcity.
Results are expressed as mean ±SEM, n=5 or 10. Inhibition percentage was calculated as follows [formula]

[1] = Effect of estramustine phosphate and clodronate on their mutual bioavailability (serum AUC0-24h, Cmax, serum estradiol) in patients
Experimental: Twelve male patients aged 62-80 were divided into two groups of six patients.
The first group of six patients were given 3200 mg daily of clodronate only for four days. On the fifth day the AUC0-24 h for the drug was calculated from serum concentrations of repeated blood samples. On the sixth day, 560 mg estramustine phosphate was add per oral to the clodronate treatment for the following four days. On day ten, the AUC0-24 h for both drugs was calculated.
The second group of six patients were give orally 560 mg daily of estramustine phosphate only for four days. On the fifth day the AUC0-24 h for the drug was calculated from serum concentrations of repeated blood samples. On the sixth day, 3200 mg clodronate was added to the estramustine phosphate treatment for the following four days. On day ten, the AUC0-24 h for both drugs was calculated.
The clodronate was provided as 400 mg capsules, and the estramustine phosphate used was estracyt in 140 mg capsules.
The method used in the analysis of the serum estramustine phosphate concentrations measures […] and is insensitive to any metabolites. The estradiol-related metabolites (estramustine and estradiol) were not analyized in connection with the bioanalysis. […] Unfortunately, estradiol was not measured after administration of estramustine phosphate alone.

[2] = present only during preincubation, then washed away, concentration not given

Row | AUC0-24h and Cmax, alone versus concomitantly with the other drug (in words) ([1]; human, in vivo, po) | bioavailability when the other drug is added (in words) ([1]; human, in vivo, po) | AUC0-24h Clodronate ([1]; male, human, in vivo, 3200 mg) [ng·h/mL] | SMILES | resorption, compound present only during preincubation (in words) (mouse calvaria; 10 μmol/l) | resorption, compound present only during preincubation (in words) (mouse calvaria; 100 μmol/l) | observation in culture medium (mouse calvaria; Experiment 1, 1000 μmol/l) | bone resorption in vitro (in words) (mouse calvaria) | bone resorption in vitro (in words) (mouse calvaria; listed as estramustine phosphate sodium) | resorption, compound present only during preincubation (in words) (mouse calvaria; [2]) | AUC0-24h and Cmax, alone versus concomitantly with the other drug (in words) ([1]; patients, oral) | bioavailability when the other drug is added (in words) ([1]; patients, oral)
1 |  |  |  | C[C@]12CC[C@@H]3c4ccc(OC(=O)N(CCCl)CCCl)cc4CC[C@H]3[C@@H]1CC[C@@H]2OP(=O)([O-])[O-].[Na+].[Na+] [Estramustine phosphate, Estramustine phosphate sodium] | slightly increased | strongly inhibited | (precipitate) | inhibited bone resorption in this in vitro model concentration-dependently and about as effectively as clodronate | dose-dependently inhibited; also recorded: inhibits bone resorption in vitro | PTH could not stimulate | differed statistically | almost doubled
2 | did not differ significantly | no effect | 19300 | O=P(O)(O)C(Cl)(Cl)P(=O)(O)O [Clodronate, Disodium clodronate] |  |  |  |  |  | also inhibits resorption |  | 
